Data: US20040242650A1, “Extended dosing regimen” (priority 2003, published 2004)
Marks after values point to notes of the source that are not given here.

Experiments:
Conditions in all cases: for Tumor Volume Day 38: mean ± SEM; for % ILS: median, time to 1 cc vs vehicle; for % T/C Day 38: treated vs vehicle
[1] = tested on: Calu-6 lung subcutaneous flank xenografts; assay: Calu-6 flank xenograft model; type: in vivo, male nude mice
Protocol: (§1) Efficacy of N-[2-[(4-hydroxyphenyl)amino]-3-pyridyl]-4-methoxybenzenesulfonamide was tested in Calu-6 NSCL, MDA-MB-468 breast and HT-29 colon carcinoma xenografts grown in nude mice. The objectives were determination of the efficacy of N-[2-[(4-hydroxyphenyl)amino]-3-pyridyl]-4-methoxybenzenesulfonamide as a single agent and in combination with cisplatin in the Calu-6 NSCL flank xenograft model; determination the efficacy of N-[2-[(4-hydroxyphenyl)amino]-3-pyridyl]-4-methoxybenzenesulfonamide as a single agent and in combination with docetaxel in the MDA-MB 468 breast flank xenograft model; determination of the efficacy of N-[2-[(4-hydroxyphenyl)amino]-3-pyridyl]-4-methoxybenzenesulfonamide as a single agent and in combination with 5-FU in the HT-29 colon flank xenograft model; and comparison the efficacy of N-[2-[(4-hydroxyphenyl)amino]-3-pyridyl]-4-methoxybenzenesulfonamide administered on 2 different schedules (q.d. vs b.i.d.) in the Calu-6 and HT-29 xenogaft model.
(§2) Following inoculation of tumor cells, tumors were passaged three times in mice before using the fragments to generate single cell suspensions. Multiple animals were used as donors. Single cell suspensions were generated by homogenizing the minced tumor tissue in RPMI 1640 media. Cell suspensions were washed three times to remove debris and other foreign materials. Viable cells were counted by trypan blue exclusion technique using a hemocytometer. Mice were injected subcutaneously with 0.5 ml of the cell suspension containing 1×10^6 cells.
Tumor cells were inoculated s.c. into male nude mice on day 0. On day 10, mice bearing established tumors were size matched at ˜233 mm^3 and placed into the following groups:
(§3) N-[2-[(4-hydroxyphenyl)amino]-3-pyridyl]-4-methoxybenzenesulfonamide—100, and 75 mg/kg/day (p.o., q.d., 5 days on, 5 days off ×2)
N-[2-[(4-hydroxyphenyl)amino]-3-pyridyl]-4-methoxybenzenesulfonamide—50 and 0 mg/kg/day (p.o., q.d. ×21 or p.o., b.i.d. ×21)
Cisplaitn—20, 10, 8 and 0 mg/kg/day (ip, qd ×1)
Combination Therapy—100/10, 75/10, 100/8 mg/kg/day (p.o., q.d., 5 days on, 5 days off ×2/ip, qd ×1), 50/10 mg/kg/day (p.o., q.d., ×21/ ip, qd ×1)

[2] = tested on: MDA-MB-468 breast subcutaneous flank xenografts; assay: MDA-MB-468 breast flank xenograft model; type: in vivo, female nude mice
Protocol: as §1, §2
Efficacy of N-[2-[(4-hydroxyphenyl)amino]-3-pyridyl]-4-methoxybenzenesulfonamide in the MDA-MB-468 Breast Flank Xenograft Model. Tumor cells derived from serially passaged tumor fragments were inoculated s.c. in female nude mice on day 0. On day 10, mice bearing established tumors were size matched at ˜231 mm^3 and placed into the following groups:
as §3
N-[2-[(4-hydroxyphenyl)amino]-3-pyridyl]-4-methoxybenzenesulfonamide—50 and 0 mg/kg/day (p.o., q.d. ×21)
Docetaxel—40, 33.3, 16.7 and 0 mg/kg/day (i.v., qd ×1)

[3] = tested on: HT-29 colon subcutaneous flank xenografts; assay: HT-29 flank xenograft model; type: in vivo, nude mice
Protocol: as §1, §2
Tumor cells derived from serially passaged tumor fragments were inoculated s.c. in female nude mice on day 0. On day 10, mice bearing established tumors were size matched at ˜236 mm^3 and placed into the following groups:
1. N-[2-[(4-hydroxyphenyl)amino]-3-pyridyl]-4-methoxybenzenesulfonamide—100, and 75 mg/kg/day (p.o., q.d., 5 days on, 5 days off ×2)
2. N-[2-[(4-hydroxyphenyl)amino]-3-pyridyl]-4-methoxybenzenesulfonamide—50 and 0 mg/kg/day (p.o., q.d. ×21 or p.o., b.i.d. ×21)
Combination Therapy—100/30, 75/30, mg/kg/day (p.o., q.d., 5 days on, 5 days off ×2/ip, qd ×1), 50/10 mg/kg/day (p.o., q.d., ×21/ip, qd ×1).

[4] = 75 mg/kg/day p.o., q.d., (5 days on, 5 days off) x2
[5] = 100 mg/kg/day p.o., q.d., (5 days on, 5 days off) x2
[6] = 100 and 75 mg/kg/day, 5 days on, 5 days off for 2 cycles

Which results are given for `COc1ccc(S(=O)(=O)Nc2cccnc2Nc2ccc(O)cc2)cc1` [N-[2-[(4-hydroxyphenyl)amino]-3-pyridyl]-4-methoxybenzenesulfonamide]?
Tumor Volume Day 38 ([1]; 50 mg/kg/day p.o., b.i.d x21): 1534 ± 47 mm^3; % ILS ([1]; 50 mg/kg/day p.o., b.i.d x21): 58*** %; % T/C Day 38 ([1]; 50 mg/kg/day p.o., b.i.d x21): 56*** %; Tumor Volume Day 38 ([1]; 50 mg/kg/day p.o., q.d x21): 1455 ± 65 mm^3; % ILS ([1]; 50 mg/kg/day p.o., q.d x21): 58*** %; % T/C Day 38 ([1]; 50 mg/kg/day p.o., q.d x21): 54*** %; Tumor Volume Day 38 [1, 4]: 1406 ± 65 mm^3; % ILS [1, 4]: 58*** %; % T/C Day 38 [1, 4]: 50*** %; Tumor Volume Day 38 [1, 5]: 1022 ± 48 mm^3; % ILS [1, 5]: 65*** %; % T/C Day 38 [1, 5]: 37*** %; antitumor activity as a single agent [1, 6]: significant antitumor activity; efficacy of combination compared to single agents alone (summary) ([1]; in combination with cisplatin): equal to or greater than additive efficacy; response in combination with cisplatin ([1]; in combination with cisplatin, all three doses tested): greater than additive responses; efficacy q.d. vs b.i.d. (summary) ([1]; q.d. or b.i.d. for 21 days): equal efficacy; efficacy as a single agent (summary) ([1]; single agent): dose-dependent efficacy; Tumor Volume Day 38 ([2]; 50 mg/kg/day p.o., q.d x21): 1244 ± 59 mm^3; % ILS ([2]; 50 mg/kg/day p.o., q.d x21): 41*** %; % T/C Day 38 ([2]; 50 mg/kg/day p.o., q.d x21): 46*** %; Tumor Volume Day 38 [2, 4]: 851 ± 55 mm^3; % ILS [2, 4]: 52*** %; % T/C Day 38 [2, 4]: 33*** %; Tumor Volume Day 38 [2, 5]: 638 ± 48 mm^3; % ILS [2, 5]: 78*** %; % T/C Day 38 [2, 5]: 25*** %; antitumor activity as a single agent ([2]; 100 and 75 mg/kg/day 5 days on, 5 days off for 2 cycles, 50 mg/kg/day daily): dose-dependent antitumor activity; efficacy of combination compared to single agents alone (summary) ([2]; in combination with docetaxel): equal to or greater than additive efficacy; response in combination with docetaxel ([2]; in combination with docetaxel at 33.3 mg/kg/day, all three doses tested): greater than additive responses; efficacy as a single agent (summary) ([2]; single agent): dose-dependent efficacy; Tumor Volume Day 38 ([3]; 50 mg/kg/day p.o., b.i.d x21): 1158 ± 62 mm^3; % ILS ([3]; 50 mg/kg/day p.o., b.i.d x21): 36*** %; % T/C Day 38 ([3]; 50 mg/kg/day p.o., b.i.d x21): 51*** %; Tumor Volume Day 38 ([3]; 50 mg/kg/day p.o., q.d x21): 1244 ± 55 mm^3; % ILS ([3]; 50 mg/kg/day p.o., q.d x21): 36*** %; % T/C Day 38 ([3]; 50 mg/kg/day p.o., q.d x21): 55*** %; Tumor Volume Day 38 [3, 4]: 942 ± 46 mm^3; % ILS [3, 4]: 50*** %; % T/C Day 38 [3, 4]: 43*** %; Tumor Volume Day 38 [3, 5]: 619 ± 40 mm^3; % ILS [3, 5]: 75*** %; % T/C Day 38 [3, 5]: 28*** %; antitumor activity as a single agent [3, 6]: significant antitumor activity; efficacy of combination compared to single agents alone (summary) ([3]; in combination with 5-FU): equal to or greater than additive efficacy; response in combination with 5-FU ([3]; in combination with 5-FU at 30 mg/kg/day, at the higher doses): additive responses; efficacy q.d. vs b.i.d. (summary) ([3]; q.d. or b.i.d. for 21 days): equal efficacy; efficacy as a single agent (summary) ([3]; single agent): dose-dependent efficacy
